# Assay results published in patent US7572786B2, “Substituted 1-piperidin-3-yl-4-piperidin-4-yl-piperazine derivatives and their use as neurokinin antagonists” (Janssen Pharmaceutica, N.V., priority 2002, dated 2009).
# Key:
# Type in all cases: cell-based
# NK1 = NK1 (Homo sapiens, UniProt P25103); test: Signal transduction (ST), intracellular Ca++ (FLIPR), NK1 antagonism; details: for IC50: read-out: pIC50 NK1 (converted)
# Procedure: (§1) This test evaluates in vitro functional NK1 antagonistic activity. For the measurements of intracellular Ca^++ concentrations the cells were grown on 96-well (black wall/transparent bottom) plates from Costar for 2 days until they reached confluence. The cells were loaded with 2 μM Fluo3 in DMEM containing 0.1% BSA and 2.5 mM probenecid for 1 h at 37° C. […] The cells were preincubated with a concentration range of antagonists for 20 min at RT and Ca^++-signals after addition of the agonists were measured in a Fluorescence Image Plate Reader (FLIPR from Molecular Devices, Crawley, England). The peak of the Ca^++-transient was considered as the relevant signal and the mean values of corresponding wells were analysed as described below.
# (§2) The sigmoidal dose response curves were analysed by computerised curve-fitting, using the GraphPad Program. […] For antagonist responses the IC50-value was calculated using non-linear regression.
# NK2 = biological target: T1, NK2 (Homo sapiens, UniProt P21452); test: Signal transduction (ST), intracellular Ca++ (FLIPR), NK2; details: for IC50: read-out: pIC50 NK2 (converted)
# T1 sequence (P21452 1-398): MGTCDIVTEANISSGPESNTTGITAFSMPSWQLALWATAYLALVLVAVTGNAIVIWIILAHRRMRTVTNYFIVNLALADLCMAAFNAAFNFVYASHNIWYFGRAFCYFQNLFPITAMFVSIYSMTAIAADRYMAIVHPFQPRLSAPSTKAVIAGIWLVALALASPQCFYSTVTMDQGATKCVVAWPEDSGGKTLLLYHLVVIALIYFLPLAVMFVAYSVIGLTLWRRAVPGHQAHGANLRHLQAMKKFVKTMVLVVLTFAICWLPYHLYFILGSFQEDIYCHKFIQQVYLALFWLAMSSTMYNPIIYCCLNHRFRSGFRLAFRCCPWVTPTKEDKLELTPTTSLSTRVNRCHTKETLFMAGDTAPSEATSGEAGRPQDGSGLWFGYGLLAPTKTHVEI
# Procedure: [The source words this procedure for another target and reports this target under the same test.] as §1, §2
# NK3 = biological target: T2, NK3 (Homo sapiens, UniProt P29371); test: Signal transduction (ST), intracellular Ca++ (FLIPR), NK3; details: for IC50: read-out: pIC50 NK3 (converted)
# T2 sequence (P29371 1-465): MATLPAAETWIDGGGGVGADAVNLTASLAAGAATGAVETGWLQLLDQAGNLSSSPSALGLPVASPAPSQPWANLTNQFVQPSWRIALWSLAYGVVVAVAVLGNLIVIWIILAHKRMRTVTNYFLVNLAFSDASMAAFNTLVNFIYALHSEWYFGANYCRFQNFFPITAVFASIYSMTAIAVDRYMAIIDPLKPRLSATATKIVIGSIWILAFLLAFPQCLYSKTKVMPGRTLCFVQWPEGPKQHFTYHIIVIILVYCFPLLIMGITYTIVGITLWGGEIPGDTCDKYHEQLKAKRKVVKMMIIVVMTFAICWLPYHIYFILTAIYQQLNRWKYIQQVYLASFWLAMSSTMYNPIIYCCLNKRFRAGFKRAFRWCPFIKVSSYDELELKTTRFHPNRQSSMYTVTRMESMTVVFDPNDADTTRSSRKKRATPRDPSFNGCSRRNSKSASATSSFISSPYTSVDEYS
# Procedure: [The source words this procedure for another target and reports this target under the same test.] as §1, §2
# Chain of NK1 (P25103 whole entry): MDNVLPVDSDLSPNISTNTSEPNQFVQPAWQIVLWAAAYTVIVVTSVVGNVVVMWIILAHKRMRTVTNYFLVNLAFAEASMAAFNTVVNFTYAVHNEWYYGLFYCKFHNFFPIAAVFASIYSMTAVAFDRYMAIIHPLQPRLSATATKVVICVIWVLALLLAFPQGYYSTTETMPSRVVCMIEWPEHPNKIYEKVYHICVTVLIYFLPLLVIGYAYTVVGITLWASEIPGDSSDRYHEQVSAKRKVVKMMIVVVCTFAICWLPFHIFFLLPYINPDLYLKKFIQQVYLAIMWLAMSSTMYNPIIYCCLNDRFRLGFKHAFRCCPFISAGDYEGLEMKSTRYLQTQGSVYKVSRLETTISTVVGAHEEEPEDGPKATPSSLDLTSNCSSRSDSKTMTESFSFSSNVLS
compound,measurement,setting,value
COc1ccccc1C(=O)N1CCCC(N2CCN([C@H]3CCN(C(=O)c4cc(C(F)(F)F)cc(C(F)(F)F)c4)[C@H](Cc4ccccc4)C3)CC2)C1 (stereo partly drawn) [Compound 47],IC50,NK1,15.8 nM
same,IC50,NK2,5010 nM
same,IC50,NK3,501 nM
Cc1ccccc1S(=O)(=O)N1CCCC(N2CCN([C@H]3CCN(C(=O)c4cc(C(F)(F)F)cc(C(F)(F)F)c4)[C@H](Cc4ccccc4)C3)CC2)C1 (stereo partly drawn) [Compound 30],IC50,NK1,15.8 nM
same,IC50,NK2,631 nM
same,IC50,NK3,631 nM
O=C(c1cc(C(F)(F)F)cc(C(F)(F)F)c1)N1CCC(N2CCN(C3CCCN(S(=O)(=O)c4cc(CCO)cs4)C3)CC2)CC1Cc1ccccc1 (stereo not drawn) [Compound 96],IC50,NK1,15.8 nM
same,IC50,NK2,398 nM
same,IC50,NK3,100 nM
O=C(Nc1ccc(Cl)cc1)N1CCCC(N2CCN([C@H]3CCN(C(=O)c4cc(C(F)(F)F)cc(C(F)(F)F)c4)[C@H](Cc4ccccc4)C3)CC2)C1 (stereo partly drawn) [Compound 74],pIC50 NK1,NK1,8.0
same,pIC50 NK2,NK2,5.4
same,pIC50 NK3,NK3,5.5
O=C(c1cc(C(F)(F)F)cc(C(F)(F)F)c1)N1CCC(N2CCN(C3CCCN(S(=O)(=O)c4cccs4)C3)CC2)CC1Cc1ccccc1 (stereo not drawn) [Compound 59],IC50,NK1,15.8 nM
same,IC50,NK2,3160 nM
same,IC50,NK3,2000 nM
O=C(C1CCCC1)N1CCCC(N2CCN(C3CCN(C(=O)c4cc(C(F)(F)F)cc(C(F)(F)F)c4)C(Cc4ccccc4)C3)CC2)C1 (stereo not drawn) [Compound 41],IC50,NK1,7.94 nM
same,IC50,NK2,3160 nM
same,IC50,NK3,100 nM
Cc1nc(C)c(S(=O)(=O)N2CCCC(N3CCN([C@H]4CCN(C(=O)c5cc(C(F)(F)F)cc(C(F)(F)F)c5)[C@H](Cc5ccccc5)C4)CC3)C2)s1 (stereo partly drawn) [Compound 38],IC50,NK1,6.31 nM
same,IC50,NK2,200 nM
same,IC50,NK3,251 nM
CC(C)NC(=O)N1CCCC(N2CCN(C3CCN(C(=O)c4cc(C(F)(F)F)cc(C(F)(F)F)c4)C(Cc4ccccc4)C3)CC2)C1 (stereo not drawn) [Compound 66],IC50,NK1,5.01 nM
same,IC50,NK2,3160 nM
same,IC50,NK3,3160 nM
O=C(c1cc(C(F)(F)F)cc(C(F)(F)F)c1)N1CC[C@H](N2CCN(C3CCCN(S(=O)(=O)c4ccc(Cl)s4)C3)CC2)C[C@H]1Cc1ccccc1 (stereo partly drawn) [Compound 36],pIC50 NK1,NK1,7.5
same,pIC50 NK2,NK2,5.3
same,pIC50 NK3,NK3,6.2
O=C(c1cc(C(F)(F)F)cc(C(F)(F)F)c1)N1CC[C@H](N2CCN(C3CCCN(S(=O)(=O)c4ccc(COCc5ccccc5)s4)C3)CC2)C[C@H]1Cc1ccccc1 (stereo partly drawn) [Compound 87],IC50,NK1,316 nM
same,IC50,NK2,794 nM
same,IC50,NK3,7940 nM
O=C(c1sccc1COCc1ccccc1)N1CCCC(N2CCN([C@H]3CCN(C(=O)c4cc(C(F)(F)F)cc(C(F)(F)F)c4)[C@H](Cc4ccccc4)C3)CC2)C1 (stereo partly drawn) [Compound 88],IC50,NK1,39.8 nM
same,IC50,NK2,2510 nM
same,IC50,NK3,631 nM
O=C(c1cc(CCOCc2ccccc2)cs1)N1CCCC(N2CCN([C@H]3CCN(C(=O)c4cc(C(F)(F)F)cc(C(F)(F)F)c4)[C@H](Cc4ccccc4)C3)CC2)C1 (stereo partly drawn) [Compound 99],pIC50 NK1,NK1,6.7
same,pIC50 NK2,NK2,5.2
same,pIC50 NK3,NK3,5.5
O=C(c1cc(C(F)(F)F)cc(C(F)(F)F)c1)N1CC[C@H](N2CCN(C3CCCN(S(=O)(=O)c4cccc(O)c4)C3)CC2)C[C@H]1Cc1ccccc1 (stereo partly drawn) [Compound 80],IC50,NK1,10 nM
same,IC50,NK2,794 nM
same,IC50,NK3,501 nM
CC(C(=O)N1CCCC(N2CCN([C@H]3CCN(C(=O)c4cc(C(F)(F)F)cc(C(F)(F)F)c4)[C@H](Cc4ccccc4)C3)CC2)C1)c1ccccc1 (stereo partly drawn) [Compound 48],IC50,NK1,31.6 nM
same,IC50,NK2,1000 nM
same,IC50,NK3,631 nM
O=C(c1cc(C(F)(F)F)cc(C(F)(F)F)c1)N1CC[C@H](N2CCN(C3CCCN(C(CO)c4ccsc4)C3)CC2)C[C@H]1Cc1ccccc1 (stereo partly drawn) [Compound 76],IC50,NK1,20 nM
same,IC50,NK2,2000 nM
same,IC50,NK3,1580 nM
O=C(c1ccccc1F)N1CCCC(N2CCN([C@H]3CCN(C(=O)c4cc(C(F)(F)F)cc(C(F)(F)F)c4)[C@H](Cc4ccccc4)C3)CC2)C1 (stereo partly drawn) [Compound 9],IC50,NK1,15.8 nM
same,IC50,NK2,2510 nM
same,IC50,NK3,794 nM
O=C(c1cccs1)N1CCCC(N2CCN([C@H]3CCN(C(=O)c4cc(C(F)(F)F)cc(C(F)(F)F)c4)[C@H](Cc4ccccc4)C3)CC2)C1 (stereo partly drawn) [Compound 20],IC50,NK1,31.6 nM
same,IC50,NK2,2000 nM
same,IC50,NK3,251 nM
O=C(C(O)c1ccccc1)N1CCCC(N2CCN([C@H]3CCN(C(=O)c4cc(C(F)(F)F)cc(C(F)(F)F)c4)[C@H](Cc4ccccc4)C3)CC2)C1 (stereo partly drawn) [Compound 56],IC50,NK1,7.94 nM
same,IC50,NK2,1000 nM
same,IC50,NK3,2000 nM
O=C(c1cc(C(F)(F)F)cc(C(F)(F)F)c1)N1CC[C@H](N2CCN(C3CCCN(c4cnccn4)C3)CC2)C[C@H]1Cc1ccccc1 (stereo partly drawn) [Compound 26],IC50,NK1,7.94 nM
same,IC50,NK2,7940 nM
same,IC50,NK3,794 nM
O=C(c1cc(C(F)(F)F)cc(C(F)(F)F)c1)N1CCC(N2CCN(C3CCCN(C(CO)c4cccs4)C3)CC2)CC1Cc1ccccc1 (stereo not drawn) [Compound 77],IC50,NK1,12.6 nM
same,IC50,NK2,2000 nM
same,IC50,NK3,3160 nM
O=C(c1cc(C(F)(F)F)cc(C(F)(F)F)c1)N1CC[C@H](N2CCN(C3CCCN(S(=O)(=O)c4c(Cl)nc5sccn45)C3)CC2)C[C@H]1Cc1ccccc1 (stereo partly drawn) [Compound 46],IC50,NK1,15.8 nM
same,IC50,NK2,501 nM
same,IC50,NK3,794 nM
Cc1nc(S(=O)(=O)N2CCCC(N3CCN([C@H]4CCN(C(=O)c5cc(C(F)(F)F)cc(C(F)(F)F)c5)[C@H](Cc5ccccc5)C4)CC3)C2)cn1C (stereo partly drawn) [Compound 32],IC50,NK1,5.01 nM
same,IC50,NK2,631 nM
same,IC50,NK3,100 nM
O=C(c1cc(C(F)(F)F)cc(C(F)(F)F)c1)N1CC[C@H](N2CCN(C3CCCN(S(=O)(=O)c4ccccc4C(F)(F)F)C3)CC2)C[C@H]1Cc1ccccc1 (stereo partly drawn) [Compound 50],IC50,NK1,100 nM
same,IC50,NK2,6310 nM
same,IC50,NK3,7940 nM
O=C(c1cc(C(F)(F)F)cc(C(F)(F)F)c1)N1CC[C@H](N2CCN(C3CCCN(C(CO)c4ccccc4Cl)C3)CC2)C[C@H]1Cc1ccccc1 (stereo partly drawn) [Compound 89],IC50,NK1,63.1 nM
same,IC50,NK2,5010 nM
same,IC50,NK3,7940 nM
O=C(c1cc(C(F)(F)F)cc(C(F)(F)F)c1)N1CC[C@H](N2CCN(C3CCCN(S(=O)(=O)c4ccc(CCOCc5ccccc5)s4)C3)CC2)C[C@H]1Cc1ccccc1 (stereo partly drawn) [Compound 84],IC50,NK1,251 nM
same,IC50,NK2,501 nM
same,IC50,NK3,1260 nM
CC(C)N/C(=N\C#N)N1CCCC(N2CCN(C3CCN(C(=O)c4cc(C(F)(F)F)cc(C(F)(F)F)c4)C(Cc4ccccc4)C3)CC2)C1 (stereo not drawn) [Compound 91],IC50,NK1,10 nM
same,IC50,NK2,1000 nM
same,IC50,NK3,3980 nM
N#Cc1cccc(C(=O)N2CCCC(N3CCN([C@H]4CCN(C(=O)c5cc(C(F)(F)F)cc(C(F)(F)F)c5)[C@H](Cc5ccccc5)C4)CC3)C2)c1 (stereo partly drawn) [Compound 57],IC50,NK1,12.6 nM
same,IC50,NK2,3160 nM
same,IC50,NK3,794 nM
N#Cc1ccc(C(=O)N2CCCC(N3CCN([C@H]4CCN(C(=O)c5cc(C(F)(F)F)cc(C(F)(F)F)c5)[C@H](Cc5ccccc5)C4)CC3)C2)cc1 (stereo partly drawn) [Compound 62],IC50,NK1,10 nM
same,IC50,NK2,3980 nM
same,IC50,NK3,3160 nM
Cc1noc(C)c1S(=O)(=O)N1CCCC(N2CCN([C@H]3CCN(C(=O)c4cc(C(F)(F)F)cc(C(F)(F)F)c4)[C@H](Cc4ccccc4)C3)CC2)C1 (stereo partly drawn) [Compound 39],IC50,NK1,6.31 nM
same,IC50,NK2,631 nM
same,IC50,NK3,501 nM
O=C(c1cc(C(F)(F)F)cc(C(F)(F)F)c1)N1CC[C@H](N2CCN(C3CCCN(S(=O)(=O)c4ccc(-c5cnco5)s4)C3)CC2)C[C@H]1Cc1ccccc1 (stereo partly drawn) [Compound 37],IC50,NK1,12.6 nM
same,IC50,NK2,2000 nM
same,IC50,NK3,631 nM
O=C(c1cc(C(F)(F)F)cc(C(F)(F)F)c1)N1CCC(N2CCN(C3CCCN(S(=O)(=O)c4ccc(O)cc4)C3)CC2)CC1Cc1ccccc1 (stereo not drawn) [Compound 78],IC50,NK1,3.98 nM
same,IC50,NK2,794 nM
same,IC50,NK3,316 nM
O=C(c1cc(C(F)(F)F)cc(C(F)(F)F)c1)N1CC[C@H](N2CCN(C3CCCN(S(=O)(=O)c4ccsc4)C3)CC2)C[C@H]1Cc1ccccc1 (stereo partly drawn) [Compound 29],IC50,NK1,6.31 nM
same,IC50,NK2,1260 nM
same,IC50,NK3,316 nM
COc1ccc(S(=O)(=O)N2CCCC(N3CCN([C@H]4CCN(C(=O)c5cc(C(F)(F)F)cc(C(F)(F)F)c5)[C@H](Cc5ccccc5)C4)CC3)C2)s1 (stereo partly drawn) [Compound 95],IC50,NK1,31.6 nM
same,IC50,NK2,3160 nM
same,IC50,NK3,1260 nM
